Data on three molecules can be found in US5739171A, “Method for promoting animal growth” (priority 1993, dated 1998).

SMILES strings stand for the structures. Read-outs that look alike come from different tables or passages of the source.

Data set [1] can be described thus: acute toxicity by oral administration (LD50), rats. Conditions: rat, in vivo. From the text: Safety of the effective components of the composition of the present invention will be given hereunder. For example, acute toxicity by oral administration of sodium o-nitrophenol, sodium p-nitrophenol and sodium 5-nitroguaiacol is as follows:
Acute toxicity by oral administration is low. In addition, it has been also confirmed that those compounds are without problem in terms of toxicity by chronic toxicity test, teratogenic test and carcinogenic test. Further, as mentioned above, those compounds have been used as plant growth regulators and hair growth promoters throughout the world. In the past, they were used as injections but there was no example of adverse affection on the animals who took the plants to which they were applied, on the persons who were injected therewith and on the persons using the hair growth promoters containing them. Thus, their safety in humans has been practically confirmed. As mentioned above, o-nitrophenol, p-nitrophenol, 5-nitroguaiacol and salts thereof which are active ingredient(s) of the methods for growth promoting of the present invention have high safety.

For a further data set, the system named is Tilapia fry. It is filed as in vivo. The conditions noted are these: feed with 10 ppm of a single salt; for Body Weight Increase per 1 Tilapia after 4 Weeks: control 3.78; for Body Weight Increase per 1 Tilapia after 8 Weeks: control 10.10. How it is done:
Tilapia fry with average body weight 2 g were used. Commercial feed for tilapia was given twice a day (morning and evening) in an amount of 5 to 8% of the body weight. The control group was given the commercial feed only, while the treated groups were given the commercial feed with the addition of the test compound(s) o-nitrophenol, p-nitrophenol and/or 5-nitroguaiacol, in the amount(s) shown in Table 3. Body weights were measured after 4 and 8 weeks.

Where [2] appears, read: female rats, read-out: LD50 for rats (female).
[3] abbreviates: male rats, read-out: LD50 for rats (male).

One may read the LD50 as the dose expected to kill half of the subjects tested. Consider `O=[N+]([O-])c1ccccc1O.[Na]` [Sodium o-nitrophenol, sodium o-nitrophenol], for which the LD50 in data set [1] (setting [2]) worked out at 1460 mg/kg. For the same molecule, the LD50 in data set [1] (setting [3]) came out at 2050 mg/kg. In the data set on Tilapia fry, the “Body Weight Increase per 1 Tilapia after 4 Weeks” value was 3.97 g; the “Body Weight Increase per 1 Tilapia after 4 Weeks, relative to control (100)” value is recorded as 105; the “Body Weight Increase per 1 Tilapia after 8 Weeks” value is 10.71 g; the “Body Weight Increase per 1 Tilapia after 8 Weeks, relative to control (100)” value amounted to 106.

Regarding `O=[N+]([O-])c1ccc(O)cc1.[Na]` [Sodium p-nitrophenol, sodium p-nitrophenol], in data set [1] (setting [2]), the LD50 was found to be 482 mg/kg. For the same molecule, the LD50 in data set [1] (setting [3]) worked out at 1250 mg/kg. For the same molecule, in the data set with Tilapia fry, the “Body Weight Increase per 1 Tilapia after 4 Weeks” value is listed as 4.04 g; the “Body Weight Increase per 1 Tilapia after 4 Weeks, relative to control (100)” value is given as 107; the “Body Weight Increase per 1 Tilapia after 8 Weeks” value was 10.61 g; the “Body Weight Increase per 1 Tilapia after 8 Weeks, relative to control (100)” value turned out to be 105.

As for `COc1ccc([N+](=O)[O-])cc1O` [Sodium 5-nitroguaiacol, sodium 5-nitroguaiacol], the LD50 in data set [1] (setting [2]) came to 1270 mg/kg. Besides, in data set [1] (setting [3]), the LD50 is 3100 mg/kg. Also, in the data set on Tilapia fry, the “Body Weight Increase per 1 Tilapia after 4 Weeks” value is 4.08 g; the “Body Weight Increase per 1 Tilapia after 4 Weeks, relative to control (100)” value is listed as 108; the “Body Weight Increase per 1 Tilapia after 8 Weeks” value is 11.09 g; the “Body Weight Increase per 1 Tilapia after 8 Weeks, relative to control (100)” value was found to be 110.
